Each structure is given as a SMILES string. Where only a bound is given, the exact number is not on record here.

The results in this text go back to patent publication US11613538B2, “Method of inhibiting or reducing a viral infection” (PTC Therapeutics, Inc., priority 2009, dated 2023).

In the test the test system is hypoxia-induced VEGF production in HeLa cells. The test can be described thus: cells. Type of test: cell-based, human. Particulars: Homo sapiens, HeLa.
As to `O=C(OC1CCCC1)N1CCc2c([nH]c3ccc(Cl)cc23)[C@@H]1c1ccc(OCCCO)cc1` [Compound 1285], the EC50 (in general, the concentration needed to bring the measured effect to its halfway point) was < 8 nM.
Consider `O=C(OC1CCCC1)N1CCc2c([nH]c3ccc(Cl)cc23)[C@@H]1c1ccc(O)cc1` [Compound 1286], for which the EC50 lay in the range of 40 to 200 nM.
The value for `CCOC(=O)N1CCc2c([nH]c3ccc(Cl)cc23)[C@@H]1c1ccc(OCCC(O)Cn2cncn2)cc1` (stereo partly shown) [Compound 1287] was 8 to 40 nM; that for `Cc1ccc(OC(=O)N2CCc3c([nH]c4ccc(Cl)cc34)[C@@H]2c2ccc(OCCC(O)CN(CCO)CCO)cc2)cc1` (stereo partly shown) [Compound 1288] was 8 to 40 nM; that for `CC#CCOC(=O)N1CCc2c([nH]c3ccc(Cl)cc23)[C@@H]1c1ccc(OCCCCl)cc1` [Compound 1294] was < 8 nM.
`CC(C)OC(=O)N1CCc2c([nH]c3ccc(Cl)cc23)[C@@H]1c1ccc(OCC[C@H](O)CO)cc1` [Compound 1295]: the EC50 was < 8 nM.
The figure for `CC(C)OC(=O)N1CCc2c([nH]c3ccc(Cl)cc23)[C@@H]1c1ccc(OCC(C)(CO)CO)cc1` [Compound 1296] is 8 to 40 nM; for `COc1ccc([C@H]2C3Nc4ccc(Cl)cc4C3CCN2C(=O)OC2CCCC2)cc1` (stereo partly shown) [Compound 1298] it is < 8 nM; for `Cc1ccc(OC(=O)N2CCC3c4cc(Cl)ccc4NC3[C@@H]2c2ccc(OCCC(O)CN3CCOCC3)cc2)cc1` (stereo partly shown) [Compound 1302] it is 40 to 200 nM.
On to `O[C@@H](CCOc1ccc([C@H]2c3[nH]c4ccc(Cl)cc4c3CCN2c2ncccn2)cc1)CN1CCOCC1` [Compound 1303], for which the EC50 was < 8 nM.
For the molecule `O[C@@H](CCOc1ccc([C@H]2c3[nH]c4ccc(Cl)cc4c3CCN2c2ncccn2)cc1)CN1CCCCC1` [Compound 1304], the EC50 was < 8 nM.
The figure for `CCN(CC)C[C@@H](O)CCOc1ccc([C@H]2c3[nH]c4ccc(Cl)cc4c3CCN2c2ncccn2)cc1` [Compound 1305] is 8 to 40 nM; for `CN1CCN(C[C@@H](O)CCOc2ccc([C@H]3c4[nH]c5ccc(Cl)cc5c4CCN3c3ncccn3)cc2)CC1` [Compound 1306] it is 8 to 40 nM; for `CN1CCN(C[C@H](O)COc2ccc([C@H]3c4[nH]c5ccc(Cl)cc5c4CCN3c3ncccn3)cc2)CC1` [Compound 1308] it is < 8 nM.
As for `CCN(CC)C[C@H](O)COc1ccc([C@H]2c3[nH]c4ccc(Cl)cc4c3CCN2c2ncccn2)cc1` [Compound 1309], the 50% effective concentration (EC50) lay in the range of 8 to 40 nM.
Turning to `O[C@H](COc1ccc([C@H]2c3[nH]c4ccc(Cl)cc4c3CCN2c2ncccn2)cc1)CN1CCCCC1` [Compound 1310], the EC50 fell in the range of 8 to 40 nM.
In turn, `CCN(CC)C[C@@H](O)COc1ccc([C@H]2c3[nH]c4ccc(Cl)cc4c3CCN2c2ncccn2)cc1` [Compound 1311] gave an EC50 of 40 to 200 nM.
The value for `CN1CCN(C[C@@H](O)COc2ccc([C@H]3c4[nH]c5ccc(Cl)cc5c4CCN3c3ncccn3)cc2)CC1` [Compound 1312] was 8 to 40 nM.
The figure for `O[C@@H](COc1ccc([C@H]2c3[nH]c4ccc(Cl)cc4c3CCN2c2ncccn2)cc1)CN1CCCCC1` [Compound 1313] is 8 to 40 nM; for `CC1(C)OC[C@H](CCOc2ccc([C@H]3c4[nH]c5ccc(Cl)cc5c4CCN3C(=O)OCC3CC3)cc2)O1` [Compound 1314] it is < 8 nM; for `CC1(C)OC[C@H](CCOc2ccc([C@H]3c4[nH]c5ccc(Cl)cc5c4CCN3C(=O)OCC3CCC3)cc2)O1` [Compound 1315] it is < 8 nM.
The figure for `CC1(C)OC[C@H](CCOc2ccc([C@H]3c4[nH]c5ccc(Cl)cc5c4CCN3C(=O)OC3CCCC3)cc2)O1` [Compound 1316] is < 8 nM; for `CC1(COc2ccc([C@H]3c4[nH]c5ccc(Cl)cc5c4CCN3C(=O)OCC3CC3)cc2)COC(C)(C)OC1` [Compound 1317] it is < 8 nM.
`CC1(COc2ccc([C@H]3c4[nH]c5ccc(Cl)cc5c4CCN3C(=O)OCC3CCC3)cc2)COC(C)(C)OC1` [Compound 1318]: the concentration for a half-maximal effect (EC50) is < 8 nM.
As for `CC1(COc2ccc([C@H]3c4[nH]c5ccc(Cl)cc5c4CCN3C(=O)OC3CCCC3)cc2)COC(C)(C)OC1` [Compound 1319], the EC50 was < 8 nM.
